# Measured values: patent US20220193126A1, “METHODS OF TREATING IMBALANCE OF PLASMA LIPIDS LEVEL AND FATTY LIVER WITH M2C MACROPHAGES” (National Pingtung University of Science and Technology, priority 2020, published 2022)
# How the values were obtained:
# [1] = tested on: bone marrow derived macrophages (BMDM); test: Induction of M2C macrophage polarization by baicalin (morphology, microscope images); type: cell-based, mice (C57BL/6J); settings: 50 μM Baicalin for 24 hours, vs placebo-treated group (M-CSF) spindle shape
# Experimental: The bone marrow was flushed out from the femurs of mice (C57BL/6J, 8-week-old to 20-week-old, from National Laboratory Animal Center in Taipei, Taiwan) with phosphate-buffered saline (PBS) containing BSA 0.5%. The peripheral blood or bone marrow flushing fluid were layered with Ficoll-Hypaque (GE Healthcare, Uppsala, Sweden) and centrifuged at 400×g for 40 minutes at 18° C. to isolate the mononuclear cell of peripheral blood and bone marrow. The interphase layer containing mononuclear cell was washed with PBS and centrifuged for 10 minutes at 100×g, 18° C. twice. Plate mononuclear cells in dish culture with RPM 1640 supplemented with 10% FBS (fetal bovine serum) and 50 ng/ml recombinant mouse M-CSF (PeproTech, British) at 37° C. and 5% CO2 for 7 days to induce the mononuclear cells to differentiate into macrophage. On the next day of the 7th day of M-CSF treatment, 5×10^5 cells of bone marrow derived macrophages (BMDM) cells were plated in RPMI 1640 (10% FBS) and incubated overnight. After overnight incubation, the BMDM cells were incubated in RPMI 1640 (10% FBS) supplemented with 50 μM Baicalin for 24 hours to induce the BMDM cells to polarize into […] macrophage.
# [2] = tested on: MERTK; test: Flow cytometry confirmation of MERTK expression on M2C macrophages; type: cell-based, mouse; settings: baicalin-treated vs placebo-treated macrophages
# Experimental: The bone marrow was flushed out from the femurs of mice (C57BL/6J, 8-week-old to 20-week-old, from National Laboratory Animal Center in Taipei, Taiwan) with phosphate-buffered saline (PBS) containing BSA 0.5%. The peripheral blood or bone marrow flushing fluid were layered with Ficoll-Hypaque (GE Healthcare, Uppsala, Sweden) and centrifuged at 400×g for 40 minutes at 18° C. to isolate the mononuclear cell of peripheral blood and bone marrow. The interphase layer containing mononuclear cell was washed with PBS and centrifuged for 10 minutes at 100×g, 18° C. twice. Plate mononuclear cells in dish culture with RPM 1640 supplemented with 10% FBS (fetal bovine serum) and 50 ng/ml recombinant mouse M-CSF (PeproTech, British) at 37° C. and 5% CO2 for 7 days to induce the mononuclear cells to differentiate into macrophage. On the next day of the 7th day of M-CSF treatment, 5×10^5 cells of bone marrow derived macrophages (BMDM) cells were plated in RPMI 1640 (10% FBS) and incubated overnight. […]
# 1×10^6 cells of the M2C macrophages induced by baicalin were analyzed by flow cytometry to confirm whether the M2C macrophages express MERTK. Fluorescence-labelled anti-mouse antibodies (Biolegend, the U.S.A.), FITC-anti-CD 11b and PE-anti-MERTK, are used in the analysis. […] After removing supernatant, the sample was dissolved in 1 ml of PBS and analyzed by flow cytometry.
smiles,measurement,setting,value
O=C(O)[C@H]1O[C@@H](Oc2cc3oc(-c4ccccc4)cc(=O)c3c(O)c2O)[C@H](O)[C@@H](O)[C@@H]1O [baicalin],morphology of the macrophages,[1],basically round shape
same,"average MERTK expression level on single cell (mean fluorescence intensity, MFI)",[2],significantly enhanced
